How the values were obtained:
[1] = system: rice; assay: Rice leaf bending assay (leaf inclination angle); format: in vivo; conditions: for Average angle / Total angle: 48 hr; for Total angle: sum of 20 rice
Text: According to a rice leaf bending assay, we measured leaf inclination angle of rice to determine effects of the natural brassinolide analogues on the enhancement of plant development. The larger the leaf inclination angle of rice, the more effects on plant development. The detailed assay procedure is as follows:
The natural brassinolide analogues, BR1, BR2, BR3, BR4, BR5 and BR6, used herein, were those prepared by the method of Example 1. And BR1, BR2, BR3, BR4, BR5 and BR6 were mixed into a mixture of brassinolide analogues (referred to as “BRs”, in which the weight ratio of BR1:BR2:BR3:BR4:BR5:BR6 is 0.4:0.4:0.4:0.4:0.4:98). Respectively the analogues and the mixture were dissolved into 95% (V/V) ethanol solution, and then diluted with pure water to 1 mg/L, 0.1 mg/L, 0.01 mg/L, 0.001 mg/L and 0.0001 mg/L. In addition, pure water was used as a control.
After rice seeds were disinfected by using 5% sodium hypochlorite solution treatment, they were rinsed with distilled water until their pH>7, placed into a petri dish in a dark incubator, and cultured by using water at 30° C.±2° C. for 9 days. Then the nine-day-old etiolated seedlings of rice were cut around the center of the base of second leaf to segments with 1 cm leaf and 1 cm leaf sheath. The leaf segments were floated in distilled water, placed in a dark incubator, cultured at 30° C.±2° C. for 24 hr, and then dried by a filter paper. The dried leaf segments were respectively immersed in the above solutions containing different concentrations of the natural brassinolide analogues or pure water, and cultured in a dark incubator at 30° C.±2° C. for 48 hr. Every solution or pure water contained the leaf segments from 20 rice. Then the inclination angle between the second leaf and the leaf sheath of the leaf segments was measured by a protractor.

[2] = system: rice seed; assay: Salt tolerance assay: germination of rice seed under high salt environment; format: in vivo
Text: According to a salt tolerance assay, we measured germination of rice seed under high salt environment to determine effects of the natural brassinolide analogues on the salt tolerance of a plant.
The natural brassinolide analogues, BR1, BR2, BR3, BR4, BR5 and BR6, used herein, were those prepared by the method of Example 1. And BR1, BR2, BR3, BR4, BR5 and BR6 were mixed into a mixture of brassinolide analogues (referred to as “BRs”, in which the weight ratio of BR1:BR2:BR3:BR4:BR5:BR6 is 0.4:0.4:0.4:0.4:0.4:98). Respectively the analogues and the mixture were dissolved into 95% (V/V) ethanol solution, and then diluted with pure water to 1 mg/L, 0.1 mg/L, 0.01 mg/L, 0.001 mg/L and 0.0001 mg/L. In addition, pure water was used as a control. Furthermore, NaCl was added to the above solutions containing different concentrations of the natural brassinolide analogues or pure water respectively, and the concentrations of the salt are 300, 400, 500 and 600 mg/L respectively.
After rice seeds were disinfected by using 5% sodium hypochlorite solution treatment, they were rinsed with distilled water until their pH>7, placed into a petri dish in a dark incubator, and cultured at 30° C.±2° C. by using the above solutions containing different concentrations of the natural brassinolide analogues or pure water for observing the germination and calculating germination rates. The results are shown in tables 4-0˜4-4, which indicate that relative to the control, each of the natural brassinolide analogues and the mixture were capable of increasing germination rates of rice under high salt environment so as to enhance the salt tolerance of a plant; and substantially the enhancement of the germination rates was positively correlated to the concentrations of the natural brassinolide analogues and the mixture.

[3] = sample 0.0001 mg/l, salt 300 mg/l
[4] = sample 0.0001 mg/l, salt 400 mg/l
[5] = sample 0.0001 mg/l, salt 500 mg/l
[6] = sample 0.0001 mg/l, salt 600 mg/l
[7] = sample 0.001 mg/l, salt 300 mg/l
[8] = sample 0.001 mg/l, salt 400 mg/l
[9] = sample 0.001 mg/l, salt 500 mg/l
[10] = sample 0.001 mg/l, salt 600 mg/l
[11] = sample 0.01 mg/l, salt 300 mg/l
[12] = sample 0.01 mg/l, salt 400 mg/l
[13] = sample 0.01 mg/l, salt 500 mg/l
[14] = sample 0.01 mg/l, salt 600 mg/l

CC[C@@H](C(C)C)[C@@H](O)[C@H](O)[C@@H](C)[C@H]1CCC2C3COC(=O)C4C[C@H](O)[C@H](O)C[C@]4(C)C3CC[C@@]21C (stereo partly shown) [BR2]
Average angle ([1]; 0.0001 mg/l): 4.025 degree
Total angle ([1]; 0.0001 mg/l): 80.5 degree
Average angle ([1]; 0.001 mg/l): 7.28 degree
Total angle ([1]; 0.001 mg/l): 145.6 degree
Average angle ([1]; 0.01 mg/l): 13.25 degree
Total angle ([1]; 0.01 mg/l): 265 degree
Average angle ([1]; 0.1 mg/l): 21.15 degree
Total angle ([1]; 0.1 mg/l): 423 degree
Average angle ([1]; 1 mg/l): 71.25 degree
Total angle ([1]; 1 mg/l): 1425 degree
Germination rate [2, 3]: 45%
Germination rate [2, 4]: 41%
Germination rate [2, 5]: 39%
Germination rate [2, 6]: 36%
Germination rate [2, 7]: 50%
Germination rate [2, 8]: 42%
Germination rate [2, 9]: 40%
Germination rate [2, 10]: 36%
Germination rate [2, 11]: 50%
Germination rate [2, 12]: 51%
Germination rate [2, 13]: 47%
Germination rate [2, 14]: 39%
Germination rate ([2]; sample 0.1 mg/l, salt 300 mg/l): 50%
Germination rate ([2]; sample 0.1 mg/l, salt 400 mg/l): 50%
Germination rate ([2]; sample 0.1 mg/l, salt 500 mg/l): 46%
Germination rate ([2]; sample 0.1 mg/l, salt 600 mg/l): 38%
Germination rate ([2]; sample 1 mg/l, salt 300 mg/l): 58%
Germination rate ([2]; sample 1 mg/l, salt 400 mg/l): 51%
Germination rate ([2]; sample 1 mg/l, salt 500 mg/l): 46%
Germination rate ([2]; sample 1 mg/l, salt 600 mg/l): 38%

C=C(C(C)C)[C@@H](O)[C@H](O)[C@@H](C)[C@H]1CCC2C3COC(=O)C4C[C@H](O)[C@H](O)C[C@]4(C)C3CC[C@@]21C (stereo partly shown) [BR3]
Average angle ([1]; 0.0001 mg/l): 3.84 degree
Total angle ([1]; 0.0001 mg/l): 76.8 degree
Average angle ([1]; 0.001 mg/l): 6.8 degree
Total angle ([1]; 0.001 mg/l): 136 degree
Average angle ([1]; 0.01 mg/l): 12.15 degree
Total angle ([1]; 0.01 mg/l): 243 degree
Average angle ([1]; 0.1 mg/l): 21 degree
Total angle ([1]; 0.1 mg/l): 420 degree
Average angle ([1]; 1 mg/l): 65.3 degree
Total angle ([1]; 1 mg/l): 1306 degree
Germination rate [2, 3]: 50%
Germination rate [2, 4]: 45%
Germination rate [2, 5]: 39%
Germination rate [2, 6]: 32%
Germination rate [2, 7]: 50%
Germination rate [2, 8]: 43%
Germination rate [2, 9]: 40%
Germination rate [2, 10]: 33%
Germination rate [2, 11]: 51%
Germination rate [2, 12]: 50%
Germination rate [2, 13]: 47%
Germination rate [2, 14]: 39%
Germination rate ([2]; sample 0.1 mg/l, salt 300 mg/l): 50%
Germination rate ([2]; sample 0.1 mg/l, salt 400 mg/l): 50%
Germination rate ([2]; sample 0.1 mg/l, salt 500 mg/l): 41%
Germination rate ([2]; sample 0.1 mg/l, salt 600 mg/l): 38%
Germination rate ([2]; sample 1 mg/l, salt 300 mg/l): 52%
Germination rate ([2]; sample 1 mg/l, salt 400 mg/l): 46%
Germination rate ([2]; sample 1 mg/l, salt 500 mg/l): 40%
Germination rate ([2]; sample 1 mg/l, salt 600 mg/l): 38%

CC(C)(O)CC[C@@H](O)[C@](C)(O)[C@H]1CC[C@@]2(O)[C@@H]3CC(=O)[C@@H]4C[C@@H](O)[C@@H](O)C[C@]4(C)[C@H]3CC[C@]12C [BR6]
Average angle ([1]; 0.0001 mg/l): 4.25 degree
Total angle ([1]; 0.0001 mg/l): 85 degree
Average angle ([1]; 0.001 mg/l): 7.1 degree
Total angle ([1]; 0.001 mg/l): 142 degree
Average angle ([1]; 0.01 mg/l): 23 degree
Total angle ([1]; 0.01 mg/l): 460 degree
Average angle ([1]; 0.1 mg/l): 35.5 degree
Total angle ([1]; 0.1 mg/l): 710 degree
Average angle ([1]; 1 mg/l): 109 degree
Total angle ([1]; 1 mg/l): 2180 degree
Effects on leaf inclination compared among analogues ([1]; in the case of high concentrations): more than those of BR2, BR3 and BR4
Germination rate ([2]; rice seed, sample 0.0001 mg/l, salt (NaCl) 300 mg/l): 52%
Germination rate ([2]; rice seed, sample 0.0001 mg/l, salt (NaCl) 400 mg/l): 48%
Germination rate ([2]; rice seed, sample 0.0001 mg/l, salt (NaCl) 500 mg/l): 42%
Germination rate ([2]; rice seed, sample 0.0001 mg/l, salt (NaCl) 600 mg/l): 36%
Germination rate ([2]; rice seed, sample 0.001 mg/l, salt (NaCl) 300 mg/l): 53%
Germination rate ([2]; rice seed, sample 0.001 mg/l, salt (NaCl) 400 mg/l): 50%
Germination rate ([2]; rice seed, sample 0.001 mg/l, salt (NaCl) 500 mg/l): 44%
Germination rate ([2]; rice seed, sample 0.001 mg/l, salt (NaCl) 600 mg/l): 37%
Germination rate ([2]; rice seed, sample 0.01 mg/l, salt (NaCl) 300 mg/l): 55%
Germination rate ([2]; rice seed, sample 0.01 mg/l, salt (NaCl) 400 mg/l): 51%
Germination rate ([2]; rice seed, sample 0.01 mg/l, salt (NaCl) 500 mg/l): 46%
Germination rate ([2]; rice seed, sample 0.01 mg/l, salt (NaCl) 600 mg/l): 39%
Germination rate ([2]; rice seed, sample 0.1 mg/l, salt (NaCl) 300 mg/l): 58%
Germination rate ([2]; rice seed, sample 0.1 mg/l, salt (NaCl) 400 mg/l): 53%
Germination rate ([2]; rice seed, sample 0.1 mg/l, salt (NaCl) 500 mg/l): 47%
Germination rate ([2]; rice seed, sample 0.1 mg/l, salt (NaCl) 600 mg/l): 42%
Germination rate ([2]; rice seed, sample 1 mg/l, salt (NaCl) 300 mg/l): 68%
Germination rate ([2]; rice seed, sample 1 mg/l, salt (NaCl) 400 mg/l): 55%
Germination rate ([2]; rice seed, sample 1 mg/l, salt (NaCl) 500 mg/l): 52%
Germination rate ([2]; rice seed, sample 1 mg/l, salt (NaCl) 600 mg/l): 44%
